# Literature values as cited in US20260014105A1, “POWDER MIXTURE COMPRISING REPARIXIN” (Dompe' Farmaceutici SPA, priority 2022, published 2026).
# System: hospitalized patients with severe COVID-19 pneumonia
structure (smiles),measurement,value
"CC(C)Cc1ccc([C@@H](C)C(=O)NS(C)(=O)=O)cc1 [reparixin, R-(−)-2-(4-isobutylphenyl)propionyl methansulfonamide]",Clinical outcomes compared with the standard of care,improved clinical outcomes
